Measured values taken from US20120142722A1, “CONJUGATES OF CYTOTOXIC DRUGS” (priority 2009, published 2012).
Values joined by “and” are separate entries in the source; they are usually repeats but may differ in a detail not shown here. Equal values may be shown once. “Also recorded” adds a separate entry of the source. Read-outs that look alike come from different tables or passages of the source.

What was measured:
[1] = tested on: A375-melanoma cells; assay: In vitro cytotoxicity, XTT tetrazolium dye reduction cell viability assay; type: cell-based; conditions: Homo sapiens
[2] = White blood cell count in A375 tumor bearing mice; type: in vivo; conditions: ATT-1 3 doses of 30 mg/kg, CCNU 6 doses of 15 mg/kg; tested 1 and 4 days post last dose
Method: Repeated doses of ATT-1 (3 doses of 30 mg/kg) and CCNU (6 doses of 15 mg/kg) were administered to A375 tumor bearing mice and WBC was tested (at AML, Herzelia, Israel) 1 and 4 days post last dose.

[3] = mouse, in vivo
[4] = tested on: A375 melanoma tumors; assay: Tumor growth inhibition in subcutaneous A375 melanoma xenograft; type: in vivo, athymic nude mice
[5] = Maximal tolerated dose in healthy nude mice; conditions: female, athymic (nu/nu), mouse, in vivo, iv; i.v. on 5 consecutive days; determined 24 hr after the last dose; no lethality and body weight loss <20%
Method: Increasing doses of ATT-11E were tested on nude mice for their effect on body weight. Healthy female athymic (nu/nu) mice (6-8 weeks) (Harlan Inc., Jerusalem, Israel) were used for determination of maximum tolerable dose (MTD). MTD was defined as the maximum dose that caused no drug-related lethality and that produced animal body weight loss of <20% of original weight. ATT-11E was dissolved in phosphate buffer (pH 7.4) containing 10% DMSO and 30% cremophor and administered by i.v. injection. ATT-11E was administered on 5 consecutive days. Body weight of mice was monitored daily and MTD was determined 24 hr post last dose.

[6] = A-375, 48 h, read-out: IC50 (inhibitory concentration of 50% of cells)
[7] = female, beagle, dog, in vivo, iv, 6 mg/kg

In the case of `CCCCCC(CCC1CCC(NC(=O)N(CCCl)N=O)CC1)(C(=O)O)C(=O)O` (stereo not shown) [ATT-1], the IC50 [1, 6] is reported as 545 µM, the “Reduction of WBC compared to the control” value [2] is reported as 27% and the Weight loss [3] is reported as 14%. The T/C ([4]; mouse, in vivo) was 0.24, the “T/C, ratio of tumor volume of treated compared to control” value ([4]; mouse, in vivo) was 0.33 and the “T/C, tumor volume treated compared to control” value ([4]; mouse, in vivo) was 0.52. For the same compound, the Tumor growth inhibition ([4]; mouse, in vivo) was 48% and 76% and the “Tumor growth inhibition compared with control” value ([4]; mouse, in vivo) was 77% and 73%.

For `O=NN(CCCl)C(=O)NC1CCCCC1` [CCNU, Chloroethylcyclo-hexylnitrosourea, reference compound], the IC50 ([1]; A-375, 48 h, A375 cells, 48 hours of incubation, XTT, read-out: IC50 (inhibitory concentration of 50% of cells)) was 200 µM, the “Reduction of WBC compared to the control” value [2] was 89% and the Weight loss [3] was 19%. For the same compound, the “T/C, tumor volume treated compared to control” value ([4]; equal total dose: ATT-1 3 doses of 30 mg/kg, CCNU 6 doses of 15 mg/kg, day 23) was 0.47, the Tumor growth inhibition ([4]; equi-molar doses: ATT-1 3×30 mg/kg, CCNU 3×15 mg/kg) was 48% and the T/C ([4]; equi-molar doses: ATT-1 3×30 mg/kg, CCNU 3×15 mg/kg, day 30) was 0.56.

Work on `CCOC(=O)C(C)(CCC1CCN(C(=O)Oc2ccc3nc4c(c(CC)c3c2)Cn2c-4cc3c(c2=O)COC(=O)C3(O)CC)CC1)C(=O)OCC` (stereo not shown) [ATT-11E] yielded an IC50 ([1]; A-375, 24 h) of 0.6 µM, an IC50 [1, 6] of 0.6 µM and an MTD at 5 days [5] of over 40 mg/kg. The “% inhibition” value ([4]; mouse, in vivo, 1 mg/kg) was 54%, the T/C ([4]; mouse, in vivo, 1 mg/kg) was 0.46 and 0.62 and the “% inhibition” value ([4]; mouse, in vivo, 2.5 mg/kg) was 65%. For the same compound, the T/C ([4]; mouse, in vivo, 2.5 mg/kg) was 0.35, the T/C ([4]; mouse, in vivo, 3 mg/kg) was 0.41 and the “% inhibition” value ([4]; mouse, in vivo, 5 mg/kg) was 72%. For the same compound, the T/C ([4]; mouse, in vivo, 5 mg/kg) was 0.28, the T/C ([4]; mouse, in vivo, 9 mg/kg) was 0.39 and the “% inhibition” value ([4]; mouse, in vivo, 20 mg/kg) was 88%. For the same compound, the “Tumor volume growth inhibition (TVI)” value ([4]; mouse, in vivo, 20 mg/kg) was 97%, the “% inhibition” value ([4]; mouse, in vivo, 30 mg/kg) was 93% and the T/C ([4]; mouse, in vivo, 30 mg/kg) was 0.07. The T/C ([4]; mouse, in vivo, 40 mg/kg) was 0.1 and the “Tumor volume growth inhibition (TVI)” value ([4]; mouse, in vivo, 40 mg/kg) was 90%.

In the case of `CCc1c2c(nc3ccc(OC(=O)N4CCC(N5CCCCC5)CC4)cc13)-c1cc3c(c(=O)n1C2)COC(=O)[C@]3(O)CC` [CPT-11, Irinotecan, reference compound], the “Plasma level of derived SN-38 at 24 hours after administration (in words)” value (6 mg/kg intravenous, beagle dogs, 24 hours) is reported as “below detection level”, the IC50 ([1]; A-375, 24 h, A375 cells, Example 10, incubated for 24 hr, XTT, read-out: IC50) is reported as 44 µM and the IC50 ([1]; A-375, 24 h, A375 cells, Example 15 / FIG. 14, 24 hours of incubation, read-out: IC50) is reported as 9 µM. For the same compound, the “Tumor growth delay after the last dose (in words)” value ([4]; i.v., ATT-11TBE 20 mg/kg 3 times a week (9 doses), CPT-11 75 mg/kg once a week for three weeks, 22 days after the last dose) was “never reached the complete tumor regression”.

For `CCc1c2c(nc3ccc(OC(=O)N4CCC(CCC(C)(C(=O)OC(C)(C)C)C(=O)OC(C)(C)C)CC4)cc13)-c1cc3c(c(=O)n1C2)COC(=O)C3(O)CC` (stereo not shown) [ATT-11TBE], the “Plasma level of derived SN-38 at 24 hours after administration (in words)” value (dog, in vivo) was “still detectable”, the “AUC of metabolite SN-38, fold larger than SN-38 derived from CPT-11” value [7] was 3.6 fold and the “Plasma half-life (t1/2) of metabolite SN-38, fold longer than SN-38 derived from CPT-11” value [7] was 3.1 fold. For the same compound, the IC50 ([1]; A-375, 24 h) was 0.8 µM, the “Tumor growth delay after the last dose (in words)” value ([4]; mouse, in vivo) was “complete tumor regression; also recorded: substantially inhibited tumor growth, even 22 days after the last dose” and the “Tumor volume growth inhibition (TVI)” value ([4]; mouse, in vivo, 5 mg/kg) was 97%. The “Tumor volume growth inhibition (TVI)” value ([4]; mouse, in vivo, 20 mg/kg) was 100%.

With `CCOC(=O)C(C)(CCC1CCC(NC(=O)N(CCCl)N=O)CC1)C(=O)OCC` (stereo not shown) [ATT-5E] the IC50 [1, 6] was 130 µM.
